The source of these data is patent US11505575B2, “Cyclic polypeptides for PCSK9 inhibition” (Merck Sharp & Dohme LLC, priority 2018, dated 2022).

This test addresses human PCSK9 / human LDLR EGFa domain interaction (Homo sapiens, UniProt Q8NBP7). As to the kind of experiment: TR-FRET assay of inhibition of the PCSK9-LDLR protein-protein interaction. Type of test: binding. The settings on record: 20 nM biotinylated human PCSK9 + 20 nM his-tagged human LDLR EGFa domain, 2 hours room temperature. As for the experimental part:
A time-resolved fluorescence resonance energy (TR-FRET) assay was used to measure inhibition of the PCSK9-LDLR protein-protein interaction. Briefly, 20 nM avitag-biotinylated human PCSK9 was incubated with 20 nM his-tagged human LDLR EGFa domain in the presence of 5 nM LANCE Ulight Streptavidin (Perkin Elmer) and 5 nM europium-Anti-6×His (Perkin Elmer) for 2 hours covered at room temperature in buffer containing 50 mM HEPES, 150 mM NaCl, 5 mM CaCl2, 0.01% BSA and 0.01% Surfactant P20. Compounds were tested in dose-response and concentrations giving half-maximal inhibition calculated using a 4-parameter fit equation.
On the technique in general: TR-FRET usually uses a lanthanide donor and a delayed reading to cut background.

Structures are written as SMILES. *1 amine or outer side, *2 acyl side, *3 side chain or, on linkers, in order; H or OH if unused. Where a SMILES comes first, the peptide text is derived from it. Bridges are numbered along the chain shown (N, C = ends). [ ]: non-standard residue; d: D form. Ala(benzothiazol-2-yl) = N[C@@H](Cc1nc2ccccc2s1)C(=O)O; Phe(4-guanidino) = N=C(N)Nc1ccc(C[C@H](N)C(=O)O)cc1; X4 = O=C([C@H](Cc1cc2cc(F)ccc2[nH]1)N[*:1])[*:2]; Trp(5-F) = N[C@@H](Cc1c[nH]c2ccc(F)cc12)C(=O)O; Trp(7-aza) = N[C@@H](Cc1c[nH]c2ncccc12)C(=O)O; hAad = O=C([C@H](CCCCC(=O)[*:3])N[*:1])[*:2]; X7 = O=C([C@H](Cc1cc[nH]c1)N[*:1])[*:2]; mXylylene = c1cc(C[*:1])cc(C[*:2])c1; d(aThr) = C[C@@H](O)[C@@H](N)C(=O)O; Cha = N[C@@H](CC1CCCCC1)C(=O)O; Agp = N=C(N)NC[C@H](N)C(=O)O; Chg = N[C@H](C(=O)O)C1CCCCC1; Tle = CC(C)(C)[C@H](N)C(=O)O; αMeV = CC(C)[C@](C)(N)C(=O)O; hLys = NCCCCC[C@H](N)C(=O)O; αMeP = C[C@@]1(C(=O)O)CCCN1; hSer = N[C@@H](CCO)C(=O)O; Dab = NCC[C@H](N)C(=O)O; Nva = CCC[C@H](N)C(=O)O; Aib = CC(C)(N)C(=O)O; Ahx = NCCCCCC(=O)O; GABA = NCCCC(=O)O; Mpa = O=C(O)CCS

Chain of human PCSK9 / human LDLR EGFa domain interaction (Q8NBP7 153-692): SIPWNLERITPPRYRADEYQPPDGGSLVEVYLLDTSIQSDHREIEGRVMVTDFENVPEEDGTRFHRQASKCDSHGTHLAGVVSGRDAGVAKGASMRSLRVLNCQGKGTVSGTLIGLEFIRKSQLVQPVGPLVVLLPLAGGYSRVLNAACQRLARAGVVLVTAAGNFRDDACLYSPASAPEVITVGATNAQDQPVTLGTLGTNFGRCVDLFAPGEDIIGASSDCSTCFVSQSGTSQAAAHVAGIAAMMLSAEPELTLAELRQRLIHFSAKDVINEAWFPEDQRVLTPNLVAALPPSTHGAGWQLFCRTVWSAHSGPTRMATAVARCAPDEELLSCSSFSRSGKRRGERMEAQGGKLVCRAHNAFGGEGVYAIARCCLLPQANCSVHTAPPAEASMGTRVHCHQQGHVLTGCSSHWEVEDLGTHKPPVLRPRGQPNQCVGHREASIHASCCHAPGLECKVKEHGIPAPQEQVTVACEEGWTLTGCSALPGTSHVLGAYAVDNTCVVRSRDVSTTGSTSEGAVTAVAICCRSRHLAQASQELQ
Chain of human PCSK9 / human LDLR EGFa domain interaction (Q8NBP7 31-152 partner limits assumed): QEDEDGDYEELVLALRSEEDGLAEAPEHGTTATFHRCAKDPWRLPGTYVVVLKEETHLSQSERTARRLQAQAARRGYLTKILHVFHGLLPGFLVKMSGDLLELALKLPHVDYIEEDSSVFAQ

A word on the IC50: it is the midpoint of a concentration-inhibition curve. For `CCC[C@@H]1NC(=O)[C@H](Cc2c[nH]c3ncccc23)NC(=O)[C@H]([C@@H](C)O)NC(=O)[C@H](CCCCCN)NC(=O)[C@H](Cc2ccc(O)cc2)NC(=O)[C@H](C(C)(C)C)NC(=O)CCSCc2cccc(c2)CSC[C@@H](C(N)=O)NC(=O)[C@H]([C@@H](C)O)NC(=O)[C@H](CCC)NC(=O)[C@H](Cc2ccc(O)cc2)NC(=O)[C@H](CCC(=O)O)NC1=O` [Compound 062] ([Mpa][Tle]Y[hLys]T[Trp(7-aza)][Nva]EY[Nva]TC-NH2; linker 1-12 via mXylylene), the IC50 lay in the range of 100 to 1000 nM. The result for `CC(C)[C@]1(C)NC(=O)[C@H](Cc2ccc(O)cc2)NC(=O)[C@H](CCC(=O)O)NC(=O)C(C)(C)NC(=O)[C@H](Cc2c[nH]c3ncccc23)NC(=O)[C@H]([C@@H](C)O)NC(=O)[C@H](CCCCN)NC(=O)[C@H](Cc2ccc(O)cc2)NC(=O)[C@H](C(C)(C)C)NC(=O)CCSCc2cccc(c2)CSC[C@@H](C(N)=O)NC(=O)[C@H]([C@@H](C)O)NC1=O` [Compound 063] ([Mpa][Tle]YKT[Trp(7-aza)][Aib]EY[αMeV]TC-NH2; linker 1-12 via mXylylene) reads 100 to 1000 nM; that for `CCC[C@@H]1NC(=O)[C@H](Cc2c[nH]c3ncccc23)NC(=O)[C@H]([C@@H](C)O)NC(=O)[C@H](Cc2cnc[nH]2)NC(=O)[C@H](Cc2ccc(O)cc2)NC(=O)[C@H](C(C)(C)C)NC(=O)CCSCc2cccc(c2)CSC[C@@H](C(N)=O)NC(=O)[C@H]([C@@H](C)O)NC(=O)[C@H](CCO)NC(=O)[C@H](Cc2ccc(O)cc2)NC(=O)[C@H](CCC(=O)O)NC1=O` [Compound 072] ([Mpa][Tle]YHT[Trp(7-aza)][Nva]EY[hSer]TC-NH2; linker 1-12 via mXylylene), 100 to 1000 nM; that for `CCC[C@@H]1NC(=O)[C@H](Cc2ccc(O)cc2)NC(=O)[C@H](CCC(=O)O)NC(=O)[C@H](CCC)NC(=O)[C@H](Cc2c[nH]c3ncccc23)NC(=O)[C@H]([C@@H](C)O)NC(=O)[C@H](Cc2cnc[nH]2)NC(=O)[C@H](Cc2ccc(O)cc2)NC(=O)[C@H](C(C)(C)C)NC(=O)CCSCc2cccc(c2)CSC[C@@H](C(N)=O)NC(=O)[C@H](CCO)NC1=O` [Compound 074] ([Mpa][Tle]YHT[Trp(7-aza)][Nva]EY[Nva][hSer]C-NH2; linker 1-12 via mXylylene), 100 to 1000 nM. Then `CCC[C@@H]1NC(=O)[C@H](Cc2c[nH]c3ncccc23)NC(=O)[C@H]([C@@H](C)O)NC(=O)[C@H](Cc2c[nH]cn2)NC(=O)[C@H](Cc2ccc(O)cc2)NC(=O)[C@H](C(C)(C)C)NC(=O)CCSCc2cccc(c2)CSC[C@@H](C(N)=O)NC(=O)[C@H]([C@@H](C)O)NC(=O)[C@]2(C)CCCN2C(=O)[C@H](Cc2ccc(O)cc2)NC(=O)[C@H](CCC(=O)O)NC1=O` [Compound 075] ([Mpa][Tle]YHT[Trp(7-aza)][Nva]EY[αMeP]TC-NH2; linker 1-12 via mXylylene), with 100 to 1000 nM.

As for `CCC[C@@H]1NC(=O)[C@H](Cc2c[nH]c3ncccc23)NC(=O)[C@H]([C@@H](C)O)NC(=O)[C@H](Cc2cc[nH]c2)NC(=O)[C@H](Cc2ccc(O)cc2)NC(=O)[C@H](C(C)(C)C)NC(=O)CCSCc2cccc(c2)CSC[C@@H](C(N)=O)NC(=O)[C@]2(C)CCCN2C(=O)[C@H](Cc2ccc(O)cc2)NC(=O)[C@H](CCC(=O)O)NC1=O` [Compound 076] ([Mpa][Tle]Y[X7]T[Trp(7-aza)][Nva]EY[αMeP]C-NH2; linker 1-11 via mXylylene), the IC50 lay within 100 to 1000 nM.

Regarding `CC(C)[C@]1(C)NC(=O)[C@H](Cc2ccc(O)cc2)NC(=O)[C@H](CCC(=O)O)NC(=O)C(C)(C)NC(=O)[C@H](Cc2c[nH]c3ncccc23)NC(=O)[C@H]([C@@H](C)O)NC(=O)[C@H](CCCCN)NC(=O)[C@H](Cc2ccc(O)cc2)NC(=O)[C@H](C(C)(C)C)NC(=O)CCSCc2cccc(c2)CSC[C@H](C(N)=O)NC(=O)[C@H]([C@@H](C)O)NC1=O` [Compound 077] ([Mpa][Tle]YKT[Trp(7-aza)][Aib]EY[αMeV]T[dC]-NH2; linker 1-12 via mXylylene), the IC50 was in the range of 100 to 1000 nM. The result for `CCC[C@@H]1NC(=O)[C@H](Cc2ccc(O)cc2)NC(=O)[C@H](CCC(=O)O)NC(=O)[C@H](CC(C)C)NC(=O)[C@H](Cc2c[nH]c3ncccc23)NC(=O)[C@H]([C@@H](C)O)NC(=O)[C@H](Cc2cnc[nH]2)NC(=O)[C@H](Cc2ccc(O)cc2)NC(=O)[C@H](C(C)(C)C)NC(=O)CCSCc2cccc(c2)CSC[C@@H](C(N)=O)NC(=O)[C@H]([C@@H](C)O)NC1=O` [Compound 078] ([Mpa][Tle]YHT[Trp(7-aza)]LEY[Nva]TC-NH2; linker 1-12 via mXylylene) reads 100 to 1000 nM; that for `CCC[C@@H]1NC(=O)[C@H](Cc2ccc(O)cc2)NC(=O)[C@H](CCC(=O)O)NC(=O)[C@H](CC2CCCCC2)NC(=O)[C@H](Cc2c[nH]c3ncccc23)NC(=O)[C@H]([C@@H](C)O)NC(=O)[C@H](Cc2cnc[nH]2)NC(=O)[C@H](Cc2ccc(O)cc2)NC(=O)[C@H](C(C)(C)C)NC(=O)CCSCc2cccc(c2)CSC[C@@H](C(N)=O)NC(=O)[C@H]([C@@H](C)O)NC1=O` [Compound 079] ([Mpa][Tle]YHT[Trp(7-aza)][Cha]EY[Nva]TC-NH2; linker 1-12 via mXylylene), 1000 to 12100 nM. As for `CCC[C@@H]1NC(=O)[C@H](Cc2nc3ccccc3s2)NC(=O)[C@H]([C@@H](C)O)NC(=O)[C@H](Cc2cnc[nH]2)NC(=O)[C@H](Cc2ccc(O)cc2)NC(=O)[C@H](C(C)(C)C)NC(=O)CCSCc2cccc(c2)CSC[C@@H](C(N)=O)NC(=O)[C@H]([C@@H](C)O)NC(=O)[C@H](CCC)NC(=O)[C@H](Cc2ccc(O)cc2)NC(=O)[C@H](CCC(=O)O)NC1=O` [Compound 084] ([Mpa][Tle]YHT[Ala(benzothiazol-2-yl)][Nva]EY[Nva]TC-NH2; linker 1-12 via mXylylene), the IC50 is 100 to 1000 nM. As for `CCC[C@@H]1NC(=O)[C@H](Cc2c[nH]c3ncccc23)NC(=O)[C@H]([C@@H](C)O)NC(=O)[C@H](CNC(=N)N)NC(=O)[C@H](Cc2cc3cc(F)ccc3[nH]2)NC(=O)[C@H](Cc2cc3cc(F)ccc3[nH]2)NC(=O)[C@@H](NC(=O)[C@H](Cc2ccc(NC(=N)N)cc2)NC(C)=O)CSCc2cccc(c2)CSC[C@@H](C(N)=O)NC(=O)[C@H]([C@@H](C)O)NC(=O)[C@H](CCC)NC(=O)[C@H](Cc2ccc(O)cc2)NC(=O)[C@H](CCC(=O)O)NC1=O` [Compound 092] (Ac-[Phe(4-guanidino)]C[X4][X4][Agp]T[Trp(7-aza)][Nva]EY[Nva]TC-NH2; linker 2-13 via mXylylene), the IC50 fell in the range of 100 to 1000 nM.

For the compound `CCC[C@@H]1NC(=O)[C@H](Cc2c[nH]c3ncccc23)NC(=O)[C@H]([C@@H](C)O)NC(=O)[C@H](CNC(=N)N)NC(=O)[C@H](Cc2c[nH]c3ccc(F)cc23)NC(=O)[C@H](C(C)(C)C)NC(=O)[C@@H](NC(=O)[C@H](Cc2ccc(NC(=N)N)cc2)NC(C)=O)CSCc2cccc(c2)CSC[C@@H](C(N)=O)NC(=O)[C@H]([C@@H](C)O)NC(=O)[C@H](CCC)NC(=O)[C@H](Cc2ccc(O)cc2)NC(=O)[C@H](CCC(=O)O)NC1=O` [Compound 093] (Ac-[Phe(4-guanidino)]C[Tle][Trp(5-F)][Agp]T[Trp(7-aza)][Nva]EY[Nva]TC-NH2; linker 2-13 via mXylylene), the IC50 lay within 100 to 1000 nM. The result for `CCC[C@@H]1NC(=O)[C@H](Cc2c[nH]c3ncccc23)NC(=O)[C@@H]([C@@H](C)O)NC(=O)[C@@H]2CCCCC(=O)NCC[C@H](NC1=O)C(=O)N[C@@H](Cc1ccc(O)cc1)C(=O)N[C@@H](C1CCCCC1)C(=O)N[C@@H]([C@@H](C)O)C(=O)N[C@H](C(N)=O)CSCc1cccc(c1)CSCCC(=O)N[C@@H](C(C)(C)C)C(=O)N[C@@H](Cc1ccc(O)cc1)C(=O)N2` [Compound 108] ([Mpa][Tle]Y[hAad][d(aThr)][Trp(7-aza)][Nva][Dab]Y[Chg]TC-NH2; linker 1-12 via mXylylene; lactam 4-8) reads 100 to 1000 nM; that for `CCC[C@@H]1NC(=O)[C@H](Cc2c[nH]c3ncccc23)NC(=O)[C@H]([C@@H](C)O)NC(=O)[C@@H]2CCCCNC(=O)CC[C@H](NC1=O)C(=O)N[C@@H](Cc1ccc(O)cc1)C(=O)NC(C)(C)C(=O)N[C@@H]([C@@H](C)O)C(=O)N[C@H](C(N)=O)CSCc1cccc(c1)CSCCC(=O)N[C@@H](C(C)(C)C)C(=O)N[C@@H](Cc1ccc(O)cc1)C(=O)N2` [Compound 114] ([Mpa][Tle]YKT[Trp(7-aza)][Nva]EY[Aib]TC-NH2; linker 1-12 via mXylylene; lactam 4-8), 100 to 1000 nM. The result for `CCC[C@@H]1NC(=O)[C@H](Cc2c[nH]c3ncccc23)NC(=O)[C@H]([C@@H](C)O)NC(=O)[C@@H]2CCCCNC(=O)CC[C@@H](NC1=O)C(=O)N[C@@H](Cc1ccc(O)cc1)C(=O)N[C@@H](C1CCCCC1)C(=O)N[C@@H]([C@@H](C)O)C(=O)NCCCC(=O)NCCCCCC(=O)N[C@@H](C(C)(C)C)C(=O)N[C@@H](Cc1ccc(O)cc1)C(=O)N2` [Compound 117] (cyclo([Ahx][Tle]YKT[Trp(7-aza)][Nva][dE]Y[Chg]T[GABA]); lactam 4-8) reads 100 to 1000 nM.
